Experimental data reported in US20190054054A1, “Methods reducing or preventing oxidation of high density lipoprotein (HDL)” (Amarin Pharmaceuticals Ireland Limited, priority 2017, published 2019).
“And” between values parts separate entries of the source, which are not always exact repeats. Equal values may be shown once.

Key:
[1] = Membrane cholesterol domain peak intensity, x-ray diffraction of POPC/cholesterol membranes (Example 9); conditions: 1.5:1 C/P mole ratio; for % change Vs control / Relative Cholesterol Domain Preak Intensity: drug-to-phospholipid mole ratio 1:30; for Relative Cholesterol Domain Preak Intensity: POPC and cholesterol
Procedure: The fatty acid stock solutions were stored at −20° C. until use. […] Samples were shell-dried under nitrogen gas and placed under vacuum for 3 hours to remove residual solvent at room temperature. After desiccation, each sample was resuspended in saline buffer (0.5 mM HEPES, 154 mM NaCl, pH 7.3) to yield a final phospholipid concentration of 2.5 mg/mL. Lipid suspensions were then vortexed for 3 minutes at ambient temperature to form MLVs. Membrane lipid vesicles were oriented for x-ray diffraction analysis as described by others (e.g., Herbette et al., Biophys. […] Briefly, a 100 μL aliquot of each MLV preparation (containing 250 μg MLV) was transferred to a Lucite® sedimentation cell fitted with an aluminum foil substrate designed to collect MLVs into a single membrane pellet upon centrifugation. […] After centrifugal orientation, sample supernatants were aspirated and aluminum foil substrates, each supporting a single membrane pellet, were removed from the sedimentation cells. Sample pellets were dried for 5-10 minutes at ambient conditions, mounted onto curved glass supports, and placed in hermetically-sealed, brass or glass containers (for immediate analysis or temporary storage, respectively). All x-ray diffraction experiments were conducted at 20° C., 74% relative humidity. The latter was established by exposing membrane samples to saturated solutions of L-(+)-tartaric acid (K2C4H4O6.½H2O) for at least 1 hour prior to experimental analysis. Oriented membrane samples were aligned at grazing incidence with respect to a collimated, mono-chromatic CuKα x-ray beam (Kα1 and Kα2 unresolved; λ=1.54 Å) produced by a Rigaku Rotaflex RU-200, high-brilliance microfocus generator (Rigaku-MSC, The Woodlands, Tex.) as previously described (Mason et al., Biophys. J., vol. 55(4), pages 769-778 (1989)). The samples were initially subjected to x-ray diffraction analysis at least 12 hours after formation of the membrane pellets and retested for up to several days. Analytical x-rays were generated by electron bombardment of a rotating copper anode and are filtered through a thin nickel foil to provide monochromatic radiation (λ=1.54 Å). Collimation of the x-ray beam was achieved using a single Franks mirror. Diffraction data were collected on a one-dimensional, position-sensitive electron detector (Hecus X-ray Systems, Graz, Austria) at a sample-to-detector distance of 150 mm from the sample site. The d-space for any given membrane multi bilayer is a measurement of the unit cell periodicity of the membrane lipid bilayer (e.g., the distance from the center of one lipid bilayer to the next including surface hydration), and is calculated from Bragg's Law, h λ=2 d sin θ, where h is the diffraction order, λ is the wavelength of the x-ray radiation (1.54 Å), d is the membrane lipid bilayer unit cell periodicity, and θ is the Bragg angle equal to one-half the angle between the incident beam and scattered beam. […] Routines written in Origin 8.6 (OriginLab Corporation, Northampton, Mass.) were used to determine total peak area (associated with all diffraction peaks in a given pattern) against which the second-order cholesterol domain peak was normalized. The raw data collected in this study was normalized using internal. Data were presented as mean+S.E.M. for (N) separate samples or treatment groups. Differences between groups were analyzed using the two-tailed, Student's t-test (for comparisons between only two groups) or ANOVA followed by Dunnett or Student-Newman-Keuls multiple comparisons post-hoc analysis (for comparisons between three or more groups). Alpha error was set to 0.05 in this study.

[2] = tested on: HUVECs exposed to oxLDL; experiment: NO and ONOO^− release from HUVECs exposed to oxLDL, nanosensors (Example 8); type: cell-based, human; conditions: oxLDL 20 min, then treatment for 1 hour; EPA 10 μM, ATM 1.0 μM
Procedure: Human umbilical vein endothelial cells (HUVECs) were isolated into primary cultures from female donors by Clonetics (San Diego, Calif.) and purchased as proliferating cells. All cell culture donors were healthy, with no pregnancy or prenatal complications. […] The confluent cells (4 to 5×10^5 cells/35 mm dish) were placed with minimum essential medium containing 3 mM L-arginine and 0.1 mM BH4 [(6R)-5,6,7,8-tetrahydrobiopterin]. Before experimental use, the cells (from second or third passage) were rinsed twice with Tyrode-HEPES buffer with 1.8 mM CaCl2).
The omega-3 fatty acids (O3FAs) cis-5,8,11,14,17-eicosapentaenoic acid (EPA) and docosahexaenoic acid (DHA) were purchased from Sigma-Aldrich (St. Louis, Mo.) and prepared initially at 11 mM in redistilled ethanol. Primary and secondary O3FA stock solutions were prepared and stored under argon at −20° C.
The oxLDL causes eNOS uncoupling and endothelial dysfunction to reproduce disease-like conditions. 25 Venous blood from healthy normolipidemic volunteers was collected into Na-EDTA (1 mg/mL blood) vacuum tubes after a 12-hour fast. Plasma was immediately separated by centrifugation at 3,000 g for 10 minutes at 4° C.
Tris-NaCl buffer was added to the dialyzed LDL to adjust the protein concentration to 30 mg/mL. A 1-mL aliquot of 20 μM CuSO4 was added to 1 mL of dialyzed normal LDL.
Oxidation was monitored by the use of measurements of TBARS. Briefly, LDL was incubated with thiobarbituric acid (0.5 wt/vol, in H2SO4, 50 mM) for 30 minutes at 100° C. […] TBARS concentration was determined as malondialdehyde (MDA) equivalents with the use of an MDA standard curve.
Concurrent measurements of NO and ONOO^− were performed with tandem electrochemical nanosensors combined into one working unit with a total diameter of 200-400 nm. Their design was based on previously developed and chemically modified carbon-fiber technology. Each of the nanosensors was made by depositing a sensing material on the tip of a carbon fiber (length 4 to 5 μm, diameter 100-200 nm). The fibers were sealed with nonconductive epoxy and electrically connected to copper wires with conductive silver epoxy. Conductive films of polymeric Ni(II) tetrakis (3-methoxy-4-hydroxyphenyl) porphyrin and Mn(III) [2.2] paracyclophanylporphyrin were used for the NO and ONOO^− sensors, respectively.
The amperometric method (with a response time of 0.1 ms) provides a quantitative signal (current) that is directly proportional to changes (from basal levels) in NO or ONOO^− concentration. Amperometric measurements were performed with a Gamry III double-channel potentiostat. Basal NO or ONOO^− levels were measured by differential pulse voltammetry in separate experiments.
All measurements of NO and ONOO^− were performed on intact endothelial cells. The NO/ONOO^− nanosensor module was positioned 5±2 μm from the surface of each individual endothelial cell using a computer-controlled M3301 micromanipulator (x-y-z resolution of 0.2 μm) and microscope (both from World Precision Instruments, Berlin, Germany) fitted with a CD camera.
Endothelial basal media was used for all the treatments. Controls were supplied with an equivalent volume of endothelial basal media.
Data are presented as mean±S.D. for (N) separate samples or experiments. Differences between groups were analyzed using the two-tailed, Student t-test (for comparisons between only two groups) or ANOVA followed by Student-Newman-Keuls multiple comparisons post-hoc analysis (for comparisons between three or more groups). Only differences with probability values less than 0.05 were considered significant.

[3] = tested on: HUVECs; experiment: NO release from HUVECs incubated with agent-treated oxidized sdLDL (Example 12); type: cell-based, human; conditions: oxidized sdLDL pretreated with agent at 10.0 μM
Procedure: All samples, with the exception of non-oxidized sdLDL controls, were subjected to copper-induced oxidation for 1 hour. Human umbilical vein endothelial cells (HUVECs) were incubated with the various sdLDL samples, stimulated with calcium, and monitored for nitric oxide (NO) and peroxynitrite (ONOO^−) release using nanosensor technology.

## CCCCC/C=C\C/C=C\C/C=C\C/C=C\CCCC(=O)O [AA, arachidonic acid]
[1]
  % change Vs control: −45.2% and −46.8 ± 15.2%
  Relative Cholesterol Domain Preak Intensity: 22.5 ± 4.3

## CC/C=C\C/C=C\C/C=C\CCCCCCCC(=O)O [ALA, α-linolenic acid]
[1]
  % change Vs control: −46.8% and −45.2 ± 11.3%
  Relative Cholesterol Domain Preak Intensity: 23.2 ± 0.6

## CC1(C)[C@@H](O[C@H]2O[C@H](C(=O)O)[C@@H](O)[C@H](O)[C@H]2O[C@@H]2O[C@H](C(=O)O)[C@@H](O)[C@H](O)[C@H]2O)CC[C@]2(C)[C@H]3C(=O)C=C4[C@@H]5C[C@@](C)(C(=O)O)CC[C@]5(C)CC[C@@]4(C)[C@]3(C)CC[C@@H]12 [Glyc, glycyrrhizin]
[1]; 1:30
  reduction in cholesterol domain peaks as compared to vehicle treatment: 54.9%
[1]
  % change Vs control: −54.9 ± 12.3%
  Relative Cholesterol Domain Preak Intensity: 19.1 ± 1.2
[1]; listed as glycyrrhizin
  Relative Cholesterol Domain Preak Intensity: 19.1±1.2

## CC(C)OC(=O)C(C)(C)Oc1ccc(C(=O)c2ccc(Cl)cc2)cc1 [fenofibrate]
[2]
  ONOO^−: 299 ± 24
[3]
  reduction of NO release as compared to vehicle-treated, oxidized sdLDL: 21%
